For one test, the target named is BCL-XL (Homo sapiens (Human), UniProt Q07817). The test is described as follows: Protein-protein interaction assay BCL-XL/Bad BH3 peptide (BCL-XL assay, TR-FRET). The conditions noted are these: His-BCL-XL / Bad BH3 peptide, median. It counts as binding. The procedure, abridged:
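His-tagged human BCL-XL (aa 1-212, 1 nM final) was preincubated 10 min at 22 °C with compound (11 concentrations, 0.1 nM–20 μM), then biotinylated Bad BH3 peptide (1 nM) and TR-FRET reagents were added. Incubation: 1 h at 22 °C, then overnight at 4 °C, pH 7 Tris buffer. IC50 from 4-parameter fit of 665/620 ratio.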
Background: In TR-FRET formats the signal depends on donor and acceptor labels being close together.

Another test relates to SUDHL5. Put plainly: Induction of caspase-3/7 activity (Assay 4), SUDHL5. The conditions noted are these: caspase-3/7 induction, median. In kind it is cell-based. Put shortly:
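Caspase-3/7 activity measured by Caspase-Glo 3/7 luminescence in DLBCL cells after 3 h compound treatment at 37 °C. Medium-only background subtracted. EC50 fitted with C0 fixed at 1 and top set to the reference compound's plateau/max induction.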

The test system of a further test is HMC-1-8. Put plainly: Antiproliferation assay (Assay 7), HMC-1-8. It counts as cell-based. The conditions noted are these: CellTiter-Glo, several values per example, read-out: Antiproli HMC-1-8 [M] IC50. The procedure, abridged:
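Luminescent ATP-based viability (CellTiter-Glo) measured after 72 hours of compound treatment at 37° C, alongside a time-zero plate read on the day of plating.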
A general note: In ATP-based viability assays light output follows the ATP content of the culture.

Molecules are shown by their SMILES. “And” between values parts separate entries of the source, which are not always exact repeats. Equal values may be shown once. Where a name gives a salt, the structure may show the parent alone. Read-outs that look alike come from different tables or passages of the source.

Sequence of BCL-XL (Q07817 other isoform, or with tags, fused parts or gaps): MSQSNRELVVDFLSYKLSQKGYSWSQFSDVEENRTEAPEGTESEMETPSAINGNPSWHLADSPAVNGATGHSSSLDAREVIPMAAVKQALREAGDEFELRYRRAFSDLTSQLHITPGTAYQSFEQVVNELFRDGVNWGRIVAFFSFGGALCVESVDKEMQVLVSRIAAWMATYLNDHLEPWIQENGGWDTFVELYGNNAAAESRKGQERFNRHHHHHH

Broadly, the IC50 is the concentration that inhibits the measured activity by half. For orientation: EC50 means the concentration giving half of the maximal effect. For `Cc1c2c(nn1C)CN(C1CC1)S(=O)(=O)CCCn1c(C(=O)O)c(CCCOc3cccc4cc(F)ccc34)c3ccc(Cl)c-2c31` (single isomer, unassigned; enantiomer 1) [Example 42, (−)-4-chloro-14-cyclopropyl-7-{3-[(6-fluoro-1-naphthyl)oxy]propyl}-2,3-dimethyl-11,12,14,15-tetrahydro-2H,10H-pyrazolo[3′,4′:4,5][1,2,8]thiadiazacycloundecino[6,7,8-hi]indole-8-carboxylic acid 13,13-dioxide N-diethylamine salt (Enantiomer 1)], the IC50 against BCL-XL is 18 µM; in the test on HMC-1-8 (72 hours) it was 5.9e-06 M and 3.8e-06 M. This compound registered an EC50 in the test on SUDHL5 (3 hours) of 190 nM.

As to `CCc1c2c(nn1C)C(CCC1CCOCC1)N(C)S(=O)(=O)CCCn1c(C(=O)O)c(CCCOc3cccc4cc(F)ccc34)c3ccc(Cl)c-2c31` (single isomer, unassigned; enantiomer 4) [Example 64, (−)-4-chloro-3-ethyl-7-{3-[(6-fluoronaphthalen-1-yl)oxy]propyl}-2,14-dimethyl-15-[2-(oxan-4-yl)ethyl]-13,13-dioxo-10,11,12,13,14,15-hexahydro-2H-13lambda^6-pyrazolo[3′,4′:4,5][1,2,8]thiadiazacycloundecino[6,7,8-hi]indole-8-carboxylic acid (Enantiomer 4)], the values for the IC50 at BCL-XL and in the test on HMC-1-8 (72 hours) were more than 20 µM and 1.1e-05 M, respectively. In addition, the response with SUDHL5 (3 hours) was half-maximal at 1200 nM (EC50).

Turning to `Cc1c2c(nn1C)C(CCN1CCOCC1)N(C)S(=O)(=O)CCCn1c(C(=O)O)c(CCCOc3cccc4ccccc34)c3cccc-2c31` (racemic) [Example 44, (rac)-2,3,14-trimethyl-15-[2-(rac)-(morpholin-4-yl)ethyl]-7-[3-(1-naphthyloxy)propyl]-11,12,14,15-tetrahydro-2H,10H-pyrazolo[3′,4′:4,5][1,2,8]thiadiazacycloundecino[6,7,8-hi]indole-8-carboxylic acid 13,13-dioxide (Mixture of Stereoisomers)], the IC50 is more than 20 µM against BCL-XL and 1.2e-05 M in the test with HMC-1-8 (72 h). Moreover, the EC50 with SUDHL5 (Homo sapiens, SU-DHL-5, 3 h) worked out at 1100 nM.

Take `CCc1c2c(nn1C)CN(C)S(=O)(=O)CCCn1c(C(=O)O)c(CCCOc3cccc4cc(F)ccc34)c3ccc(Cl)c-2c31` (single isomer, unassigned; enantiomer 2) [Example 37, (−)-4-chloro-3-ethyl-7-{3-[(6-fluoronaphthalen-1-yl)oxy]propyl}-2,14-dimethyl-13,13-dioxo-10,11,12,13,14,15-hexahydro-2H-13lambda^6-pyrazolo[3′,4′:4,5][1,2,8]thiadiazacycloundecino-[6,7,8-hi]indole-8-carboxylic acid (Enantiomer 2)]: the IC50 turned out to be 18 µM against BCL-XL and 1.9e-05 M with HMC-1-8 (72 hours). This compound also came in with an EC50 with SUDHL5 (3 hours) of 5000 nM.

`Cc1c2c(nn1C)CNS(=O)(=O)CCCn1c(C(=O)O)c(CCCOc3cccc4cc(F)ccc34)c3ccc(Cl)c-2c31` (single isomer, unassigned; enantiomer 2) [Example 52, 4-chloro-7-{3-[(6-fluoronaphthalen-1-yl)oxy]propyl}-2,3-dimethyl-13,13-dioxo-10,11,12,13,14,15-hexahydro-2H-13lambda^6-pyrazolo[3′,4′:4,5][1,2,8]thiadiazacycloundecino[6,7,8-hi]indole-8-carboxylic acid (Enantiomer 2)]: the IC50 at BCL-XL is 16 µM; in the test on HMC-1-8 (72 hours), more than 3.3e-05 M. Further, in the test with SUDHL5 (3 hours), a half-maximal effect (EC50) was put at 27000 nM.

As for `Cc1c2c(nn1C)CN(C)S(=O)(=O)CCCn1c(C(=O)O)c(CCCOc3cccc4cc(F)ccc34)c3ccc(F)c-2c31` (single isomer, unassigned; enantiomer 2) [Example 39, (+)-4-fluoro-7-{3-[(6-fluoronaphthalen-1-yl)oxy]propyl}-2,3,14-trimethyl-13,13-dioxo-10,11,12,13,14,15-hexahydro-2H-13lambda^6-pyrazolo[3′,4′:4,5][1,2,8]thiadiazacycloundecino-[6,7,8-hi]indole-8-carboxylic acid (Enantiomer 2)], the IC50 against BCL-XL was more than 20 µM; in the test with HMC-1-8 (72 hours) it was 3.3e-06 M and 5.1e-06 M. Further, a half-maximal effect with SUDHL5 (3 hours) (EC50) was put at 350 nM.

As to `Cc1c2c(nn1C)CN(C1CC1)S(=O)(=O)CCCn1c(C(=O)O)c(CCCOc3cccc4cc(F)ccc34)c3ccc(Cl)c-2c31` (single isomer, unassigned; enantiomer 2) [Example 43, (+)-4-chloro-14-cyclopropyl-7-{3-[(6-fluoro-1-naphthyl)oxy]propyl}-2,3-dimethyl-11,12,14,15-tetrahydro-2H,10H-pyrazolo[3′,4′:4,5][1,2,8]thiadiazacycloundecino[6,7,8-hi]indole-8-carboxylic acid 13,13-dioxide N-diethylamine salt (Enantiomer 2)], the results for the IC50 at BCL-XL and with HMC-1-8 (72 hours) were more than 20 µM and more than 3.3e-05 M, respectively. In the test on SUDHL5 (3 hours), this compound displayed an EC50 of 6100 nM.

On to `Cc1c2c(nn1C)CN(C1CC1)S(=O)(=O)CCCn1c(C(=O)O)c(CCCOc3cccc4ccccc34)c3ccc(Cl)c-2c31` [Example 40, (rac)-4-chloro-14-cyclopropyl-2,3-dimethyl-7-[3-(1-naphthyloxy)propyl]-11,12,14,15-tetrahydro-2H,10H-pyrazolo[3′,4′:4,5][1,2,8]thiadiazacycloundecino[6,7,8-hi]indole-8-carboxylic acid 13,13-dioxide], for which the figures for the IC50 at BCL-XL and with HMC-1-8 (72 hours) were 19 µM and 7.2e-06 M, respectively. The EC50 on SUDHL5 (3 hours) was found to be 1900 nM.

`Cc1c2c(nn1C)C(N1CCOCC1)CCN(C)S(=O)(=O)CCCn1c(C(=O)O)c(CCCOc3cccc4cc(F)ccc34)c3ccc(Cl)c-2c31` (racemic) [Example 47, (rac)-15-chloro-1-(3-((6-fluoronaphthalen-1-yl)oxy)propyl)-8,13,14-trimethyl-11-(rac)-morpholino-5,6,9,10,11,13-hexahydro-4H,8H-pyrazolo[3′,4′:6,7][1]thia[2,10]diazacyclotridecino[8,9,10-hi]indole-2-carboxylic acid 7,7-dioxide (Mixture of Stereoisomers)]: the figures for the IC50 on BCL-XL, with HMC-1-8 (72 h) and in the test on HMC-1-8 (72 hours) were more than 20 µM, 8e-06 M and 1.2e-05 M, respectively. Besides, the EC50 with SUDHL5 (Homo sapiens, SU-DHL-5, 3 h) amounted to 220 nM.

Consider `Cc1c2c(nn1C)CN(C1CC1)S(=O)(=O)CCCn1c(C(=O)O)c(CCCOc3cccc4cc(F)ccc34)c3ccc(Cl)c-2c31` (racemic) [Example 41, (rac)-4-chloro-14-cyclopropyl-7-{3-[(6-fluoro-1-naphthyl)oxy]propyl}-2,3-dimethyl-11,12,14,15-tetrahydro-2H,10H-pyrazolo[3′,4′:4,5][1,2,8]thiadiazacycloundecino[6,7,8-hi]indole-8-carboxylic acid 13,13-dioxide], for which the IC50 against BCL-XL came to 19 µM; in the test on HMC-1-8 (72 hours), 3.9e-06 M. This compound displayed an EC50 on SUDHL5 (3 hours) of 820 nM.

`Cc1c2c(nn1C)C(CCN1CCOCC1)N(C)S(=O)(=O)CCCn1c(C(=O)O)c(CCCOc3cccc4cc(F)ccc34)c3ccc(Cl)c-2c31` (single isomer, unassigned; enantiomer 1) [Example 66, 4-chloro-7-{3-[(6-fluoronaphthalen-1-yl)oxy]propyl}-2,3,14-trimethyl-15-[2-(morpholin-4-yl)ethyl]-13,13-dioxo-10,11,12,13,14,15-hexahydro-2H-13lambda^6-pyrazolo[3′,4′:4,5][1,2,8]thiadiazacycloundecino[6,7,8-hi]indole-8-carboxylic acid (Enantiomer 1)]: the values for the IC50 against BCL-XL and in the test on HMC-1-8 (72 hours) were more than 20 µM and more than 3.3e-05 M, respectively. This compound displayed an EC50 with SUDHL5 (3 hours) of 3500 nM.

Consider `Cc1c2c(nn1C)CN(C)S(=O)(=O)CCCn1c(C(=O)O)c(CCCOc3cccc4cc(F)ccc34)c3ccc(F)c-2c31` (single isomer, unassigned; enantiomer 1) [Example 38, (−)-4-fluoro-7-{3-[(6-fluoronaphthalen-1-yl)oxy]propyl}-2,3,14-trimethyl-13,13-dioxo-10,11,12,13,14,15-hexahydro-2H-13lambda^6-pyrazolo[3′,4′:4,5][1,2,8]thiadiazacycloundecino-[6,7,8-hi]indole-8-carboxylic acid (Enantiomer 1)], for which the IC50 against BCL-XL is more than 20 µM; with HMC-1-8 (72 hours), 2.7e-05 M. This compound also showed an EC50 in the test on SUDHL5 (3 hours) of 20000 nM.

For the compound `CCc1c2c(nn1C)C(CCC1CCOCC1)N(C)S(=O)(=O)CCCn1c(C(=O)O)c(CCCOc3cccc4cc(F)ccc34)c3ccc(Cl)c-2c31` (racemic) [Example 59, (rac)-4-chloro-3-ethyl-7-{3-[(6-fluoro-1-naphthyl)oxy]propyl}-2,14-dimethyl-15-[2-(tetrahydro-2H-pyran-4-yl)ethyl]-11,12,14,15-tetrahydro-2H,10H-pyrazolo[3′,4′:4,5][1,2,8]thiadiazacycloundecino[6,7,8-hi]indole-8-carboxylic acid 13,13-dioxide (Racemate 2)], the figures for the IC50 at BCL-XL and with HMC-1-8 (72 hours) were 16 µM and 6e-07 M, respectively. The compound also yielded an EC50 in the test with SUDHL5 (3 hours) of 37 nM.
